Several values for one entry are separate records, joined by “and”; a condition that tells them apart may be missing. Equal values may be shown once. Toxic doses and inconclusive results are not listed. The calls were made as follows: active = survival T/C of 150% or more; inactive = T/C below 125% in these data.
Test system: P388 leukemia ip, CD2F1 mice, survival T/C
Experiment: NCI In Vivo Anticancer Drug Screen. Data for tumor model P388 Leukemia (intraperitoneal) in CD2F1 (CDF1) mice
Details: endpoint: median survival time, higher = longer survival
How it was run: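 Mice carrying the transplanted tumor received test compound or vehicle. Survival was recorded in each group, and the value is the treated-group measurement divided by that of the vehicle-treated control group.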

[1] = dose: 50.0 mg/kg/injection, schedule: Q01DX009 (ip), vehicle: saline
[2] = dose: 100.0 mg/kg/injection, schedule: Q01DX009 (ip), vehicle: saline
[3] = dose: 200.0 mg/kg/injection, schedule: Q01DX009 (ip), vehicle: saline
[4] = dose: 12.5 mg/kg/injection, schedule: Q01DX009 (ip), vehicle: saline
[5] = dose: 25.0 mg/kg/injection, schedule: Q01DX009 (ip), vehicle: saline
[6] = dose: 100.0 mg/kg/injection, schedule: Q04DX003 (ip), vehicle: Klucel (hydroxypropylcellulose) (HPC)
[7] = dose: 200.0 mg/kg/injection, schedule: Q04DX003 (ip), vehicle: Klucel (hydroxypropylcellulose) (HPC)
[8] = dose: 400.0 mg/kg/injection, schedule: Q04DX003 (ip), vehicle: Klucel (hydroxypropylcellulose) (HPC)
[9] = dose: 50.0 mg/kg/injection, schedule: Q01DX005 (ip), vehicle: Klucel (hydroxypropylcellulose) (HPC)
[10] = dose: 100.0 mg/kg/injection, schedule: Q01DX005 (ip), vehicle: Klucel (hydroxypropylcellulose) (HPC)
[11] = dose: 200.0 mg/kg/injection, schedule: Q01DX005 (ip), vehicle: Klucel (hydroxypropylcellulose) (HPC)
[12] = dose: 50.0 mg/kg/injection, schedule: Q01DX005 (ip), vehicle: saline with Tween-80
[13] = dose: 100.0 mg/kg/injection, schedule: Q01DX005 (ip), vehicle: saline with Tween-80
[14] = dose: 200.0 mg/kg/injection, schedule: Q01DX005 (ip), vehicle: saline with Tween-80

Measured: T/C

CCOC(=O)C(Br)(C(=O)OCC)C(C)C
inactive: [1] 111 % of control | [2] 109 % of control | [3] 120 % of control

Cc1ncc(C(O)c2ccc(Cl)cc2)n1Cc1ccccc1 (stereo unspecified)
inactive: dose: 60.0 mg/kg/injection, schedule: Q01DX005 (ip), vehicle: saline with Tween-80 96 % of control | dose: 120.0 mg/kg/injection, schedule: Q01DX005 (ip), vehicle: saline with Tween-80 104 % of control | dose: 240.0 mg/kg/injection, schedule: Q01DX005 (ip), vehicle: saline with Tween-80 99 % of control

COC(=O)C(N)Cc1ccc(OCc2ccccc2)cc1 (stereo unspecified)
inactive: [4] 102 % of control | [5] 102 % of control | dose: 25.0 mg/kg/injection, schedule: Q04DX002 (ip), vehicle: saline with Tween-80 97 % of control | [1] 100 % of control and 101 % of control | dose: 50.0 mg/kg/injection, schedule: Q04DX002 (ip), vehicle: saline with Tween-80 108 % of control

CC(C)(C)OC(=O)NC(CCC(=O)O)(Cc1ccccc1)C(=O)NC(CCC(=O)OCc1ccccc1)C(=O)OCc1ccccc1 (stereo unspecified)
inactive: dose: 6.25 mg/kg/injection, schedule: Q01DX005 (ip), vehicle: saline with Tween-80 98 % of control | dose: 12.5 mg/kg/injection, schedule: Q01DX005 (ip), vehicle: saline with Tween-80 96 % of control | dose: 25.0 mg/kg/injection, schedule: Q01DX005 (ip), vehicle: saline with Tween-80 105 % of control

Clc1ccc(CN2Cc3ccc4cccnc4c3OC2c2ccncc2)cc1Cl (stereo unspecified)
inactive: [6] 100 % of control | [7] 96 % of control | [8] 103 % of control

COCOCCC1C=CCC2C(=O)C=C(OC)C(O)C12C (stereo unspecified)
inactive: [9] 108 % of control | [10] 97 % of control | [11] 101 % of control

ClC1CN2CCC1CC2 (stereo unspecified)
inactive: dose: 12.5 mg/kg/injection, schedule: Q01DX009 (ip), vehicle: saline with Tween-80 91 % of control | dose: 25.0 mg/kg/injection, schedule: Q01DX009 (ip), vehicle: saline with Tween-80 95 % of control | dose: 50.0 mg/kg/injection, schedule: Q01DX009 (ip), vehicle: saline with Tween-80 100 % of control

O=C(O)C(=O)O.[Ti].[c-]1[c-][c-][cH-][c-]1.[c-]1[c-][c-][cH-][c-]1
inactive: dose: 3.75 mg/kg/injection, schedule: Q01DX005 (ip), vehicle: Klucel (hydroxypropylcellulose) (HPC) 94 % of control | dose: 7.5 mg/kg/injection, schedule: Q01DX005 (ip), vehicle: Klucel (hydroxypropylcellulose) (HPC) 99 % of control | dose: 15.0 mg/kg/injection, schedule: Q01DX005 (ip), vehicle: Klucel (hydroxypropylcellulose) (HPC) 99 % of control | dose: 30.0 mg/kg/injection, schedule: Q01DX005 (ip), vehicle: Klucel (hydroxypropylcellulose) (HPC) 100 % of control

CC(=O)OC1C(=O)C2(C)C(O)CC3OCC3(OC(C)=O)C2C(OC(=O)c2ccccc2)C2(O)CC(OC(=O)C(O)C(NC(=O)c3ccccc3)c3ccccc3)C(C)=C1C2(C)C (stereo unspecified)
inactive: dose: 2.5 mg/kg/injection, schedule: Q01DX005 (ip), vehicle: DMSO 106 % of control | dose: 5.0 mg/kg/injection, schedule: Q01DX005 (ip), vehicle: DMSO 121 % of control
active: dose: 20.0 mg/kg/injection, schedule: Q01DX005 (ip), vehicle: DMSO 167 % of control

CCOP(O)(=S)OCC.[Yb]
inactive: [6] 96 % of control | [7] 99 % of control | [8] 90 % of control

Cc1cnc2ccc(O)cc2c1CO
inactive: dose: 100.0 mg/kg/injection, schedule: Q04DX002 (ip), vehicle: saline with Tween-80 92 % of control | dose: 200.0 mg/kg/injection, schedule: Q04DX002 (ip), vehicle: saline with Tween-80 94 % of control | dose: 400.0 mg/kg/injection, schedule: Q04DX002 (ip), vehicle: saline with Tween-80 93 % of control

CC(=O)Nc1ccc(C(O)C2=CC(=O)c3ccccc3C2=O)cc1 (stereo unspecified)
inactive: dose: 6.25 mg/kg/injection, schedule: Q01DX009 (ip), vehicle: saline 97 % of control | [4] 97 % of control | [5] 86 % of control | dose: 25.0 mg/kg/injection, schedule: Q01DX009 (ip), vehicle: suspension in saline 103 % of control | dose: 50.0 mg/kg/injection, schedule: Q01DX009 (ip), vehicle: suspension in saline 114 % of control | dose: 100.0 mg/kg/injection, schedule: Q01DX009 (ip), vehicle: suspension in saline 113 % of control

CCOC(=O)C(=O)Cc1ccc(C(=N)N)cc1
inactive: [1] 101 % of control | [2] 96 % of control | [3] 88 % of control

Cn1cnc([N+](=O)[O-])c1[Se]c1nc(N)nc2nc[nH]c12
inactive: dose: 3.12 mg/kg/injection, schedule: Q01DX009 (ip), vehicle: dextrose 117 % of control | dose: 3.12 mg/kg/injection, schedule: Q01DX009 (ip), vehicle: water 104 % of control | dose: 6.25 mg/kg/injection, schedule: Q01DX009 (ip), vehicle: dextrose 112 % of control | dose: 6.25 mg/kg/injection, schedule: Q01DX009 (ip), vehicle: water 116 % of control | dose: 25.0 mg/kg/injection, schedule: Q01DX009 (ip), vehicle: water 106 % of control | dose: 50.0 mg/kg/injection, schedule: Q01DX009 (ip), vehicle: dextrose 123 % of control | dose: 50.0 mg/kg/injection, schedule: Q01DX009 (ip), vehicle: water 116 % of control
active: dose: 25.0 mg/kg/injection, schedule: Q01DX009 (ip), vehicle: dextrose 161 % of control

O=C1C(Cl)=C(Nc2ccccc2)C(O)N1c1ccccc1 (stereo unspecified)
inactive: [12] 103 % of control | [13] 96 % of control | [14] 92 % of control

CCCCN(Cc1c(O)ccc2ccccc12)Cc1c(O)ccc2ccccc12
inactive: [9] 95 % of control | [10] 97 % of control | [11] 94 % of control

CC1(C)NC(=O)[C@]2(C[C@@H](O)C=C2CO)O1
inactive: dose: 25.0 mg/kg/injection, schedule: Q01DX005 (ip), vehicle: saline 94 % of control | dose: 50.0 mg/kg/injection, schedule: Q01DX005 (ip), vehicle: saline 99 % of control | dose: 100.0 mg/kg/injection, schedule: Q01DX005 (ip), vehicle: saline 93 % of control

O=NC1C(=O)NC(=S)NC1=O
inactive: dose: 12.5 mg/kg/injection, schedule: Q04DX002 (ip), vehicle: saline with Tween-80 100 % of control

O=C(O)c1c2c(nc3ccccc13)-c1ccccc1C2
inactive: [9] 102 % of control | [10] 93 % of control | [11] 89 % of control

Nc1cc2oc(=O)[nH]c2cc1Cl
inactive: [9] 90 % of control | [10] 92 % of control | [11] 103 % of control

CC(C)CC(NC(=O)OCc1ccccc1)C(=O)NC(Cc1c[nH]c2ccccc12)C(=O)O (stereo unspecified)
inactive: [12] 100 % of control | [13] 103 % of control | [14] 102 % of control

NC(=S)N/N=C/c1nccc2ccccc12
inactive: dose: 200.0 mg/kg/injection, schedule: Q01DX009 (ip), vehicle: saline with Tween-80 98 % of control
active: dose: 9.4 mg/kg/injection, schedule: Q01DX009 (ip), vehicle: saline with Tween-80 153 % of control | dose: 37.5 mg/kg/injection, schedule: Q01DX009 (ip), vehicle: saline 150 % of control | dose: 75.0 mg/kg/injection, schedule: Q01DX009 (ip), vehicle: saline 150 % of control | dose: 100.0 mg/kg/injection, schedule: Q01DX009 (ip), vehicle: saline with Tween-80 152 % of control

CC1=NNC(=O)/C1=C/c1ccccc1Cl
inactive: dose: 50.0 mg/kg/injection, schedule: Q01DX009 (ip), vehicle: Klucel (hydroxypropylcellulose) (HPC) 104 % of control | dose: 100.0 mg/kg/injection, schedule: Q01DX009 (ip), vehicle: Klucel (hydroxypropylcellulose) (HPC) 105 % of control | dose: 200.0 mg/kg/injection, schedule: Q01DX009 (ip), vehicle: Klucel (hydroxypropylcellulose) (HPC) 112 % of control | dose: 400.0 mg/kg/injection, schedule: Q01DX009 (ip), vehicle: Klucel (hydroxypropylcellulose) (HPC) 113 % of control

COc1ccc2c(c1)no[n+]2[O-]
inactive: dose: 100.0 mg/kg/injection, schedule: Q04DX002 (ip), vehicle: saline 93 % of control | dose: 200.0 mg/kg/injection, schedule: Q04DX002 (ip), vehicle: saline 92 % of control | dose: 400.0 mg/kg/injection, schedule: Q04DX002 (ip), vehicle: saline 99 % of control

Cc1ccc(C2=C(C#N)C(c3ccccc3)C(C#N)=C(N)O2)cc1 (stereo unspecified)
inactive: [9] 97 % of control | [10] 95 % of control

CSC(=S)n1nc(-c2ccccc2)c(N=Nc2ccc(C)cc2)c1-c1ccccc1
inactive: [12] 98 % of control | [13] 91 % of control | [14] 93 % of control

c1ccc(CSC2=NCCN2)cc1
inactive: [4] 93 % of control | [1] 91 % of control
